Numbers after ± are expanded uncertainties.
Assay: xn = mol fraction of the nth substance listed
Conditions: Liquid, Vibrating tube method

CCCCCCCCCC [decane] + CCCCCC
mass density (298.15 K, 30000 kPa, x2 = 0.4978): 721.7 ± 0.8 kg/m3
mass density (298.15 K, 30000 kPa, x2 = 0.5957): 715.2 ± 0.8 kg/m3
mass density (298.15 K, 30000 kPa, x2 = 0.7978): 700.4 ± 0.9 kg/m3
mass density (298.15 K, 40000 kPa, x2 = 0.1992): 744 ± 0.9 kg/m3
mass density (298.15 K, 40000 kPa, x2 = 0.3968): 734.2 ± 0.9 kg/m3
mass density (298.15 K, 40000 kPa, x2 = 0.4978): 728 ± 0.9 kg/m3
mass density (298.15 K, 40000 kPa, x2 = 0.5957): 721.6 ± 0.9 kg/m3
mass density (298.15 K, 40000 kPa, x2 = 0.7978): 707.2 ± 0.9 kg/m3
mass density (298.15 K, 50000 kPa, x2 = 0.1992): 749.6 ± 0.9 kg/m3
mass density (298.15 K, 50000 kPa, x2 = 0.3968): 739.9 ± 0.9 kg/m3
mass density (298.15 K, 50000 kPa, x2 = 0.4978): 733.8 ± 0.9 kg/m3
mass density (298.15 K, 50000 kPa, x2 = 0.5957): 727.6 ± 0.9 kg/m3
mass density (298.15 K, 50000 kPa, x2 = 0.7978): 713.4 ± 1 kg/m3
mass density (298.15 K, 60000 kPa, x2 = 0.1992): 755 ± 1 kg/m3
mass density (298.15 K, 60000 kPa, x2 = 0.3968): 745.4 ± 1 kg/m3
mass density (298.15 K, 60000 kPa, x2 = 0.4978): 739.4 ± 1 kg/m3
mass density (298.15 K, 60000 kPa, x2 = 0.5957): 733.3 ± 1 kg/m3
mass density (298.15 K, 60000 kPa, x2 = 0.7978): 719.3 ± 1 kg/m3
mass density (323.15 K, 100 kPa, x2 = 0.1992): 697.5 ± 0.7 kg/m3
mass density (323.15 K, 100 kPa, x2 = 0.3968): 685.4 ± 0.7 kg/m3
mass density (323.15 K, 100 kPa, x2 = 0.4978): 678.2 ± 0.7 kg/m3
mass density (323.15 K, 100 kPa, x2 = 0.5957): 670.9 ± 0.7 kg/m3
mass density (323.15 K, 100 kPa, x2 = 0.7978): 653.4 ± 0.7 kg/m3
mass density (323.15 K, 1000 kPa, x2 = 0.1992): 698.6 ± 0.7 kg/m3
mass density (323.15 K, 1000 kPa, x2 = 0.3968): 686.5 ± 0.7 kg/m3
mass density (323.15 K, 1000 kPa, x2 = 0.4978): 679.4 ± 0.7 kg/m3
mass density (323.15 K, 1000 kPa, x2 = 0.5957): 672.1 ± 0.7 kg/m3
mass density (323.15 K, 1000 kPa, x2 = 0.7978): 654.6 ± 0.7 kg/m3
mass density (323.15 K, 5000 kPa, x2 = 0.1992): 702.3 ± 0.7 kg/m3
mass density (323.15 K, 5000 kPa, x2 = 0.3968): 690.5 ± 0.7 kg/m3
mass density (323.15 K, 5000 kPa, x2 = 0.4978): 683.6 ± 0.7 kg/m3
mass density (323.15 K, 5000 kPa, x2 = 0.5957): 676.3 ± 0.7 kg/m3
mass density (323.15 K, 5000 kPa, x2 = 0.7978): 659.3 ± 0.7 kg/m3
mass density (323.15 K, 10000 kPa, x2 = 0.1992): 706.7 ± 0.7 kg/m3
mass density (323.15 K, 10000 kPa, x2 = 0.3968): 695.3 ± 0.7 kg/m3
mass density (323.15 K, 10000 kPa, x2 = 0.4978): 688.3 ± 0.8 kg/m3
mass density (323.15 K, 10000 kPa, x2 = 0.5957): 681.3 ± 0.8 kg/m3
mass density (323.15 K, 10000 kPa, x2 = 0.7978): 664.7 ± 0.8 kg/m3
mass density (323.15 K, 20000 kPa, x2 = 0.1992): 714.8 ± 0.8 kg/m3
mass density (323.15 K, 20000 kPa, x2 = 0.3968): 703.7 ± 0.8 kg/m3
mass density (323.15 K, 20000 kPa, x2 = 0.4978): 697.1 ± 0.8 kg/m3
mass density (323.15 K, 20000 kPa, x2 = 0.5957): 690.3 ± 0.8 kg/m3
mass density (323.15 K, 20000 kPa, x2 = 0.7978): 674.3 ± 0.8 kg/m3
mass density (323.15 K, 30000 kPa, x2 = 0.1992): 722.1 ± 0.8 kg/m3
mass density (323.15 K, 30000 kPa, x2 = 0.3968): 711.3 ± 0.8 kg/m3
mass density (323.15 K, 30000 kPa, x2 = 0.4978): 704.9 ± 0.8 kg/m3
mass density (323.15 K, 30000 kPa, x2 = 0.5957): 698.3 ± 0.9 kg/m3
mass density (323.15 K, 30000 kPa, x2 = 0.7978): 682.8 ± 0.9 kg/m3
mass density (323.15 K, 40000 kPa, x2 = 0.1992): 728.6 ± 0.9 kg/m3
mass density (323.15 K, 40000 kPa, x2 = 0.3968): 718.2 ± 0.9 kg/m3
mass density (323.15 K, 40000 kPa, x2 = 0.4978): 711.9 ± 0.9 kg/m3
mass density (323.15 K, 40000 kPa, x2 = 0.5957): 705.5 ± 0.9 kg/m3
mass density (323.15 K, 40000 kPa, x2 = 0.7978): 690.4 ± 0.9 kg/m3
mass density (323.15 K, 50000 kPa, x2 = 0.1992): 734.9 ± 0.9 kg/m3
mass density (323.15 K, 50000 kPa, x2 = 0.3968): 724.6 ± 0.9 kg/m3
mass density (323.15 K, 50000 kPa, x2 = 0.4978): 718.5 ± 1 kg/m3
mass density (323.15 K, 50000 kPa, x2 = 0.5957): 712.1 ± 1 kg/m3
mass density (323.15 K, 50000 kPa, x2 = 0.7978): 697.4 ± 1 kg/m3
mass density (323.15 K, 60000 kPa, x2 = 0.1992): 740.7 ± 1 kg/m3
mass density (323.15 K, 60000 kPa, x2 = 0.3968): 730.6 ± 1 kg/m3
mass density (323.15 K, 60000 kPa, x2 = 0.4978): 724.6 ± 1 kg/m3
mass density (323.15 K, 60000 kPa, x2 = 0.5957): 718.4 ± 1 kg/m3
mass density (323.15 K, 60000 kPa, x2 = 0.7978): 703.9 ± 1.1 kg/m3
mass density (348.15 K, 100 kPa, x2 = 0.1992): 677 ± 0.7 kg/m3
mass density (348.15 K, 1000 kPa, x2 = 0.1992): 678.1 ± 0.7 kg/m3
mass density (348.15 K, 1000 kPa, x2 = 0.3968): 665.7 ± 0.7 kg/m3
mass density (348.15 K, 1000 kPa, x2 = 0.4978): 658.2 ± 0.7 kg/m3
mass density (348.15 K, 1000 kPa, x2 = 0.5957): 650.3 ± 0.7 kg/m3
mass density (348.15 K, 1000 kPa, x2 = 0.7978): 631.9 ± 0.7 kg/m3
mass density (348.15 K, 5000 kPa, x2 = 0.1992): 682.5 ± 0.7 kg/m3
mass density (348.15 K, 5000 kPa, x2 = 0.3968): 670.4 ± 0.7 kg/m3
mass density (348.15 K, 5000 kPa, x2 = 0.4978): 663.2 ± 0.7 kg/m3
mass density (348.15 K, 5000 kPa, x2 = 0.5957): 655.5 ± 0.7 kg/m3
